Key:
[1] = In vitro binding affinity for PPAR-alpha; parameters: species or system Homo sapiens
Cricetinae gen. sp. [2] = assay: Effect at an oral dose of 0.3 mg/kg/day for 14 days on serum cholesterol level of hamster; assay type: functional, Cricetulus griseus
Cricetinae gen. sp. [3] = assay: Effect at an oral dose of 0.1 mg/kg/day for 14 days on serum cholesterol level of hamster; assay type: functional, Cricetulus griseus
Cricetinae gen. sp. [4] = assay: Effect at an oral dose of 0.3 mg/kg/day for 14 days on serum triglyceride level of hamster; assay type: functional, Cricetulus griseus
[5] = biological target: T1, Peroxisome proliferator-activated receptor gamma (Homo sapiens, UniProt P37231); assay: Effective concentration against human PPAR-gamma in Gal4 transactivation assay; 25% response at 3 uM; assay type: functional
T1 sequence (P37231 whole entry): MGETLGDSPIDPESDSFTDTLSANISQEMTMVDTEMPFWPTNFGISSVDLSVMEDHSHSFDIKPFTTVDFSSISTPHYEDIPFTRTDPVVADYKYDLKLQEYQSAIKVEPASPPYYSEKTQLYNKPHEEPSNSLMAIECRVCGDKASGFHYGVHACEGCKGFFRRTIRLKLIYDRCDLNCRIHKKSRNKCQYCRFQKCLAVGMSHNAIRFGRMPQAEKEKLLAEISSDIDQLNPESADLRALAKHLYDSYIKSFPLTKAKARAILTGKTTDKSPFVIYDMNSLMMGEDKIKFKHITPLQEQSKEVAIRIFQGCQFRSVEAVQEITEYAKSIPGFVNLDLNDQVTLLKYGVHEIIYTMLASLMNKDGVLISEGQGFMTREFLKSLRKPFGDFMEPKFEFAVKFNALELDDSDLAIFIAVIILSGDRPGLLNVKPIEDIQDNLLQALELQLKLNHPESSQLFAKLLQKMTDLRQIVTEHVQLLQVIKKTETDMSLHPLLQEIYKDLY

[6] = biological target: T1, Peroxisome proliferator-activated receptor gamma; assay: In vitro binding affinity for PPAR-gamma
[7] = biological target: T2, Peroxisome proliferator-activated receptor delta (Homo sapiens, UniProt Q03181); assay: In vitro binding affinity for PPAR-delta
T2 sequence (Q03181 whole entry): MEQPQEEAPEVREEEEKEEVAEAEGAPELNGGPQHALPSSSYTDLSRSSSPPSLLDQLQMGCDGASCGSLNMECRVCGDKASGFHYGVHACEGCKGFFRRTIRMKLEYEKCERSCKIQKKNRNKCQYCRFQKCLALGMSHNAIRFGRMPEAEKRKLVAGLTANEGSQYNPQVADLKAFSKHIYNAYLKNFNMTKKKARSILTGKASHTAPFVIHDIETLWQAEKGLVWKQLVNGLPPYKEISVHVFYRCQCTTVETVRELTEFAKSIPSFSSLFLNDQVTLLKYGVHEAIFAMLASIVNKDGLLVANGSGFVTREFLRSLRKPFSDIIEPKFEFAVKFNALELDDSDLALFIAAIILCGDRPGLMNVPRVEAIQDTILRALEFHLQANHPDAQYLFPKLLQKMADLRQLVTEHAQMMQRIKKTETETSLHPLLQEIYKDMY

Cricetinae gen. sp. [8] = assay: Effect at an oral dose of 0.1 mg/kg/day for 14 days on serum triglyceride level of hamster; assay type: functional, Cricetulus griseus
[9] = biological target: T3, Peroxisome proliferator-activated receptor alpha (Canis lupus familiaris, UniProt Q95N78); assay: Effective concentration against canine PPAR-alpha in Gal4 transactivation assay
T3 sequence (Q95N78 whole entry): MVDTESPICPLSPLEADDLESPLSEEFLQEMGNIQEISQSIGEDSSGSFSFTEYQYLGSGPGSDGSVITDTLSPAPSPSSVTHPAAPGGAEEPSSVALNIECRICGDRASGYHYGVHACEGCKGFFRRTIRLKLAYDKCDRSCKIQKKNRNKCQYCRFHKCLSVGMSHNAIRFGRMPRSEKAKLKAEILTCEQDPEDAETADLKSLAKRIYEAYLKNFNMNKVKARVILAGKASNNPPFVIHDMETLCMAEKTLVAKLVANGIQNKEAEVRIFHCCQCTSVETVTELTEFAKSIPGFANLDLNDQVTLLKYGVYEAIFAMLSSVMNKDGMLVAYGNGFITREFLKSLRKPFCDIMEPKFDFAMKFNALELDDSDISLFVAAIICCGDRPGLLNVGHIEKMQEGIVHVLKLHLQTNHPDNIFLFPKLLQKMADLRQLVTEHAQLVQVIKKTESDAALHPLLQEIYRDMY

[10] = biological target: T1, Peroxisome proliferator-activated receptor gamma; assay: Effective concentration against human PPAR-gamma in Gal4 transactivation assay; 4% response at 3 uM; assay type: functional
[11] = biological target: T4, Peroxisome proliferator-activated receptor alpha (Homo sapiens, UniProt Q07869); assay: Effective concentration against human PPAR-alpha in Gal4 transactivation assay; assay type: functional
T4 sequence (Q07869 whole entry): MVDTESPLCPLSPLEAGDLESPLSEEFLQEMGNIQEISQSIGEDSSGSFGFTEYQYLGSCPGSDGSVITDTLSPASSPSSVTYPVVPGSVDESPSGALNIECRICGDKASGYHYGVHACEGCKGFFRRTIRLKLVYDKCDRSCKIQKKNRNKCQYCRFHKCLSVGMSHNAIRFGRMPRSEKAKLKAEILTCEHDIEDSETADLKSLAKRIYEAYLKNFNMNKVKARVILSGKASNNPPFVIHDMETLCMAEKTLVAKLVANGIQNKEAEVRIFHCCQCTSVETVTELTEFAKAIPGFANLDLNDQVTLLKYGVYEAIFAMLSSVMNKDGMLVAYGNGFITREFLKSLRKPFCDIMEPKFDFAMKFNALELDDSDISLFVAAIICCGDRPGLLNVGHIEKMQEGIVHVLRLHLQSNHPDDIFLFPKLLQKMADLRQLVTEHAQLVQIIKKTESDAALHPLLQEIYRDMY

[12] = biological target: T1, Peroxisome proliferator-activated receptor gamma; assay: Effective concentration required to produce 50% of maximal reporter activity in cell based transactivation assay using human PPAR-gamma-GAL4 chimeric receptor; 6% response at 3 uM ccompound concentration; assay type: functional
[13] = biological target: T1, Peroxisome proliferator-activated receptor gamma; assay: Effective concentration against human PPAR-gamma in Gal4 transactivation assay; 56% response at 3 uM; assay type: functional
[14] = biological target: T1, Peroxisome proliferator-activated receptor gamma; assay: Effective concentration against human PPAR-gamma in Gal4 transactivation assay; 12% response at 3 uM; assay type: functional
[15] = biological target: T1, Peroxisome proliferator-activated receptor gamma; assay: Effective concentration against human PPAR-gamma in Gal4 transactivation assay; 2% response at 3 uM; assay type: functional
[16] = biological target: T1, Peroxisome proliferator-activated receptor gamma; assay: Effective concentration against human PPAR-gamma in Gal4 transactivation assay; assay type: functional

| Structure (SMILES) | IC50 [1] | IC50 [6] | IC50 [7] | EC50 [9] | EC50 [11] | also measured |
| --- | --- | --- | --- | --- | --- | --- |
| CC(C)[C@@]1(C(=O)O)Cc2cc(OCCCOc3ccc(OC(F)(F)F)cc3Cl)ccc2O1 | 3 nM | > 15 µM | > 15 µM | < 1 nM |  | TC (Cricetinae gen. sp. [2]): -54%; TC (Cricetinae gen. sp. [3]): -43%; TG (Cricetinae gen. sp. [4]): -52%; EC50 [5]: > 3 µM; TG (Cricetinae gen. sp. [8]): -52% |
| CC(C)[C@@]1(C(=O)O)Cc2cc(OCCOc3ccc(OC(F)(F)F)cc3Cl)ccc2O1 | 264 nM | > 50 µM | > 50 µM | 10 nM | 57 nM | EC50 [10]: > 3 µM |
| CC(C)(C)[C@@]1(C(=O)O)Cc2cc(OCCOc3ccc(OC(F)(F)F)cc3Cl)ccc2O1 | 1390 nM | > 50 µM | > 50 µM |  |  |  |
| CC(C)(C)C1(C(=O)O)Cc2cc(OCCCOc3ccc(CC(F)(F)F)cc3Cl)ccc2O1 (racemic) | 7 nM | > 15 µM | > 50 µM | 2 nM |  | EC50 [12]: > 3 µM |
| CC(C)[C@]1(C(=O)O)Cc2cc(OCCCOc3ccc(OC(F)(F)F)cc3Cl)ccc2O1 | 1280 nM | > 50 µM | > 15 µM |  |  |  |
| CCC1(C(=O)O)Cc2cc(OCCCOc3ccc(C(C)(C)C)cc3Cl)ccc2O1 (racemic) | 17 nM | 4.33 µM | > 15 µM | 20 nM | 9 nM | EC50 [13]: > 3 µM |
| O=C(O)C1Cc2cc(OCCCOc3ccc(OCC(F)(F)F)cc3Cl)ccc2O1 (racemic) | 786 nM | > 15 µM | > 15 µM | 1350 nM |  |  |
| CCC1(C(=O)O)Cc2cc(OCCCOc3ccc(CC(C)(C)C)cc3Cl)ccc2O1 (racemic) | 4 nM | 5.6 µM | > 50 µM | 2 nM |  | EC50 [14]: > 3 µM |
| O=C(O)C1(C(F)(F)F)Cc2cc(OCCCOc3ccc(CC(F)(F)F)cc3Cl)ccc2O1 (racemic) | 9 nM | > 15 µM | 0.399 µM | 26 nM | 37 nM | EC50 [15]: > 3 µM |
| CC1(C(=O)O)Cc2cc(OCCCOc3ccc(OCC(F)(F)F)cc3Cl)ccc2O1 (racemic) | 106 nM | > 15 µM | > 15 µM | 42 nM | 138 nM | EC50 [16]: > 3 µM |
| CCC1(C(=O)O)Cc2ccc(OCCCOc3ccc(OC(F)(F)F)cc3Cl)cc2O1 (configuration not stated) | 22 nM | 3.22 µM | 1.19 µM | < 1 nM |  |  |

— ChEMBL document CHEMBL1144356 (J Med Chem, 2005)
